Each structure is given as a SMILES string.

Consider 1 molecule from patent publication US20020193283A1, “Inhibitors of prenyl-protein transferase” (priority 2000, published 2002).

The nature of this assay: the assays disclosed below (unspecified, Examples 10-17). Conditions: assays not specified.

Consider `Cc1ncc(CN2CCN(C(=O)OC(C)(C)C)CC2)n1Cc1ccc(C#N)c(Oc2cccc(OCCO)c2)c1` [Example 1 Step G, 1-(tert-butoxycarbonyl)-4-[1-(3-((3-(2-hydroxyethoxy)phenyl)oxy)-4-cyanobenzyl)-2-methyl-5-imidazolylmethyl]piperazine], for which the “activity in the assays disclosed below” value is “active”.
